{"source": "patent US20240285638A1", "about": "“METHODS FOR TREATING FACIOSCAPULOHUMERAL MUSCULAR DYSTROPHY (FSHD)” (RESEARCH INSTITUTE AT NATIONWIDE CHILDREN'S HOSPITAL, priority 2021, published 2024)", "key": {"[1]": {"tested_on": "DUX4", "test": "DUX4-activated biomarkers and target genes in biopsied muscle of FSHD patients after IM or IV injection", "assay_type": "in vivo, human", "protocol": "SAA and AdOx, or derivatives thereof, as described herein, are injected into patients suffering from FSHD intramuscularly (IM) or intravenously (IV). Prior to treatment and after 4, 8, 12, 16, 20, 24, 28, 32, 36 40, 44, 48, and 52 weeks, DUX4-activated biomarkers and/or DUX4 target genes in muscle of the patients are measured in biopsied muscle as described herein."}, "[2]": {"tested_on": "human myoblasts expressing DUX4", "test": "Caspase-3/7 activation assay in human myoblasts transfected with DUX4, with or without inhibitor", "assay_type": "cell-based", "conditions": "inhibitor added 1.5 hours later, increasing concentrations, caspase assay 48 hours later, FIGS. 6A-B", "protocol": "HEK293 cells were transfected with 100 ng plasmid DNA (65,000 cells/well) using Lipofectamine 2000 and assays were performed 48 hours later using the Apo-ONE Homogeneous Caspase-3/7 Assay (Promega). The protocol was followed according to the manufacturer's instructions. Briefly, 100 μl of the reagent was added to each well and the 96-well plate was gently rotated for 20 min. Relative fluorescence was monitored every hour for 4-6 hours. Inhibitor studies were performed in human myoblasts which were transfected with 100 ng of DUX4 DNA (65,000 cells/well) with Lipofectamine 2000. The inhibitors adenosine dialdehyde or salvianolic acid A were added 1.5 hours later and a caspase assay was performed 48 hours later as above. The observation that a DUX4 arginine methylation null mutant protects from cell death and DUX4 interacts with an arginine methyltransferase indicate a role for arginine methylation inhibitors as protective in FSHD disease models. Thus, the global methylation inhibitor, adenosine dialdehyde (AdOx)^17, and the PRMT1 inhibitor, salvianolic acid A (SAA)^18 were tested for their ability to protect against DUX4-mediated cell death. The caspase assay was performed in human myoblasts expressing DUX4 in the presence or absence of AdOx or SAA."}, "[3]": {"tested_on": "DUX4", "test": "DUX4 biomarker and target gene expression in muscle of FSHD mouse model (TIC-DUX4) after IM or IV injection", "assay_type": "in vivo", "protocol": "SAA and AdOx, or derivatives thereof, as described herein, are each injected into a FSHD mouse model (TIC-DUX4) or any other mouse model of FSHD mice intramuscularly (IM) or intravenously (IV). After 4, 8, 12, 16, 20, and 24 weeks, the ? DUX4, a DUX4 biomarker, such as Wfdc3 or Trim36, and DUX4 target gene expression are measured by qRT-PCR, RNAscope, or ddPCR."}}}
{"smiles": "O=C(/C=C/c1ccc(O)c(O)c1/C=C/c1ccc(O)c(O)c1)O[C@H](Cc1ccc(O)c(O)c1)C(=O)O", "note": "[SAA, salvianolic acid A]", "values": [{"measurement": "FSHD disease symptoms", "setting": "[1]", "value": "Improvement in FSHD disease symptoms"}, {"measurement": "expression levels of DUX4-activated biomarkers and/or DUX4 target genes in muscle", "setting": "[1]; 4-52 weeks, vs same patients prior to treatment", "value": "Reduced expression levels of DUX4-activated biomarkers and/or DUX4 target genes"}, {"measurement": "caspase cleavage (DUX4-mediated cell death)", "setting": "[2]", "value": "decreased caspase cleavage in a dose-responsive manner"}, {"measurement": "DUX4 biomarker expression in muscle (Wfdc3 or Trim36)", "setting": "[3]; IM or IV, 4-24 weeks, vs untreated mice", "value": "Reduced levels of DUX4 biomarker expression"}, {"measurement": "expression of DUX4 target genes PRAMEF12, ZSCAN4, TRIM43, LEUTX", "setting": "[3]; IM or IV, vs untreated mice", "value": "decreased expression of DUX4 target genes"}, {"measurement": "muscle strength, morphology, ambulation and motor function", "setting": "[3]; treated mice", "value": "improved muscle strength, morphology, and overall ambulation and motor function"}]}
